COc1c(O)cc2c(c1O)[C@@H]1O[C@H](CO)[C@@H](O)[C@H](O)[C@H]1OC2=O
solubility (mole fraction)
Conditions	in DMSO	in ethanol	in ethyl acetate	in ethylene glycol	in isopropanol	in n-butanol	in propylene glycol	in sec-butanol	in transcutol	in water
298.15 K	0.0171	0.00469	0.000228	0.00774	0.00129	0.000379	0.00777	0.000384	0.0145	7.57e-05
303.15 K	0.0184	0.00537	0.000311	0.00859	0.00139	0.000404	0.00873	0.00041	0.0166	9.93e-05
308.15 K	0.02	0.00612	0.000405	0.00944	0.00149	0.000431	0.00966	0.00044	0.0186	0.000125
313.15 K	0.0214	0.00687	0.000526	0.0105	0.00159	0.000458	0.0108	0.000473	0.0207	0.000155
318.15 K	0.023	0.00777	0.000671	0.0117	0.00169	0.000492	0.0119	0.000514	0.0228	0.000187

Conditions	solubility (mole fraction)
in PEG-400, 298.15 K	0.0236
in PEG-400, 303.15 K	0.0277
in PEG-400, 308.15 K	0.032
in PEG-400, 313.15 K	0.0367
in PEG-400, 318.15 K	0.0415
